One data set deals with Aspergillus flavus. Put plainly: Antifungal activity against Aspergillus flavus. It is filed as functional.
The test system of data set [1] is Candida albicans. As to the kind of experiment: Antifungal activity against azole-resistant Candida albicans ATCC 64124. The format is functional.
For data set [2], the system named is Candida albicans. Put plainly: Antifungal activity against azole-susceptible Candida albicans MYA2876. The format is functional.
For another data set, the system named is Cryptococcus neoformans. As to the kind of experiment: Antifungal activity against Cryptococcus neoformans. The format is functional.
In data set [3] the test system is Staphylococcus aureus. Put plainly: Antibacterial activity against Staphylococcus aureus ATCC 25923. The format is functional.
The test system of data set [4] is Staphylococcus aureus. Put plainly: Antibacterial activity against methicillin-resistant Staphylococcus aureus ATCC 33591. The format is functional.
Data set [5] deals with Enterococcus faecalis. Put plainly: Antibacterial activity against vancomycin-resistant Enterococcus faecalis ATCC 51299. The format is functional.
In data set [6] the test system is Escherichia coli. As to the kind of experiment: Antibacterial activity against Escherichia coli ATCC 25922. It is filed as functional.
The subject of data set [7] is Pseudomonas aeruginosa. As to the kind of experiment: Antibacterial activity against Pseudomonas aeruginosa ATCC 27853. It is filed as functional.
In data set [8] the test system is Klebsiella pneumoniae. Put plainly: Antibacterial activity against Klebsiella pneumoniae ATCC 13883. It is filed as functional.
The test system of another data set is Rhodotorula mucilaginosa. As to the kind of experiment: Antifungal activity against Rhodotorula pilimanae. The format is functional.
Data set [9] relates to SK-OV-3. Put plainly: Cytotoxicity against human SKOV3 cells at 10 ug/ml after 48 hrs by MTT assay. It is filed as cell-based. Conditions: sk-ov-3, 48 h. (Tetrazolium assays rely on reduction of a dye to a coloured formazan, in cell work by metabolically active cells.)
The test system of data set [10] is SK-OV-3. As to the kind of experiment: Cytotoxicity against human SKOV3 cells after 48 hrs. It is filed as cell-based. Conditions: SK-OV-3, 48 h.
Data set [11] deals with Candida albicans. As to the kind of experiment: Antifungal activity against Candida albicans ATCC 64124 assessed as cell membrane disruption at MIC after 1 hr by Sytox Green dye based fluorescence assay. It is filed as functional.
The test system of a further data set is Fusarium graminearum. Put plainly: Antifungal activity against Fusarium graminearum B4-A5 assessed as cell membrane disruption at MIC after 1 hr by Sytox Green dye based fluorescence assay. The format is functional.
Data set [12] deals with Staphylococcus aureus. As to the kind of experiment: Antibacterial activity against methicillin-resistant Staphylococcus aureus ATCC 33591 at 5 mg/ml. The format is functional.
The test system of data set [13] is Staphylococcus aureus. As to the kind of experiment: Antibacterial activity against Staphylococcus aureus ATCC 25923 at 5 mg/ml. It is filed as functional.
In data set [14] the test system is Enterococcus faecalis. As to the kind of experiment: Antibacterial activity against vancomycin-resistant Enterococcus faecalis ATCC 51299 at 5 mg/ml. The format is functional.
Data set [15] deals with Escherichia coli. As to the kind of experiment: Antibacterial activity against Escherichia coli ATCC 25922 at 5 mg/ml. It is filed as functional.
Data set [16] relates to Pseudomonas aeruginosa. As to the kind of experiment: Antibacterial activity against Pseudomonas aeruginosa ATCC 27853 at 5 mg/ml. It is filed as functional.
The subject of data set [17] is Klebsiella pneumoniae. As to the kind of experiment: Antibacterial activity against Klebsiella pneumoniae ATCC 13883 at 5 mg/ml. It is filed as functional.

Values after ≈ are worked out from the molar mass of the structure shown. Active and inactive are the calls of the source. No cut-off for these calls is given here.

One may read the MIC as the least concentration at which growth counts as inhibited. High values mean weaker potency, low ones greater potency. With `CCCCCCCCS(=O)(=O)OC[C@H]1O[C@H](O[C@@H]2[C@@H](O)[C@H](O[C@H]3O[C@H](CN)[C@@H](O)[C@H](O)[C@H]3O)[C@@H](N)C[C@H]2N)[C@H](O)[C@@H](N)[C@@H]1O.Cl.Cl.Cl.Cl`, the MIC is over 250 mg/L in the data set on Aspergillus flavus, 31.3 mg/L with Candida albicans [1], 15.6 mg/L with Candida albicans [2] and 7.8 mg/L in the data set on Cryptococcus neoformans.
Broadly, the IC50 is the concentration needed to halve the response being measured. Read a high IC50 as lower potency. Take `CCCCCC[n+]1nn(CCCCCCn2n[n+](CCCCCC)c3c2C(=O)c2ccccc2C3=O)c2c1C(=O)c1ccccc1C2=O.O=S(=O)([O-])C(F)(F)F.O=S(=O)([O-])C(F)(F)F`: the MIC in the data set on Staphylococcus aureus [3] is 4 mg/L; in the data set on Staphylococcus aureus [4], 8 to 16 mg/L; against Enterococcus faecalis [5] it was 4 mg/L; against Escherichia coli [6] it was 8 to 16 mg/L; against Pseudomonas aeruginosa [7] it was 16 mg/L; against Klebsiella pneumoniae [8], 250 mg/L. For the same molecule, the MIC in the data set with Aspergillus flavus is over 250 mg/L; against Candida albicans [1], 250 mg/L; with Candida albicans [2] it was over 250 mg/L; in the data set on Cryptococcus neoformans, 125 mg/L; against Rhodotorula mucilaginosa, 15.6 mg/L. Further, in the data set on SK-OV-3 [9], the Activity result is recorded as “Non-Toxic”. Besides, the IC50 with SK-OV-3 [10] stood at 109 mg/L.
As for `CCCCCCCCCC[n+]1nn(CCCCCCn2n[n+](CCCCCCCCCC)c3c2C(=O)c2ccccc2C3=O)c2c1C(=O)c1ccccc1C2=O.O=S(=O)([O-])C(F)(F)F.O=S(=O)([O-])C(F)(F)F`, the MIC is 8 mg/L in the data set with Staphylococcus aureus [3]; 4 to 8 mg/L against Staphylococcus aureus [4]; 1 mg/L in the data set with Enterococcus faecalis [5]; 4 to 8 mg/L against Escherichia coli [6]; 4 mg/L in the data set on Pseudomonas aeruginosa [7]; 32 mg/L in the data set on Klebsiella pneumoniae [8]. The MIC in the data set with Aspergillus flavus turned out to be 7.81 mg/L; against Candida albicans [1], 3.91 mg/L; against Candida albicans [2], 3.91 mg/L; against Cryptococcus neoformans, 2 mg/L; in the data set on Rhodotorula mucilaginosa, 2 mg/L. The result with Candida albicans [11] and in the data set on Fusarium graminearum was Active. Moreover, the Activity result with SK-OV-3 [9] was “Non-Toxic”. Also, the IC50 in the data set on SK-OV-3 [10] came to 68.4 mg/L.
For the molecule `OC(Cn1cncn1)(Cn1cncn1)c1ccc(F)cc1F` [FLUCONAZOLE], the MIC in the data set on Candida albicans [1] was over 250 mg/L; in the data set with Candida albicans [2] it was 1.56 mg/L (≈ 5.09 µM).
As for `CC[n+]1nn(CCCCCCn2n[n+](CC)c3c2C(=O)c2ccccc2C3=O)c2c1C(=O)c1ccccc1C2=O.O=S(=O)([O-])C(F)(F)F.O=S(=O)([O-])C(F)(F)F`, the MIC with Staphylococcus aureus [3] is 0.125 mg/L; in the data set on Staphylococcus aureus [4], over 250 mg/L; with Enterococcus faecalis [5] it was 32 mg/L; against Escherichia coli [6] it was over 250 mg/L; in the data set on Pseudomonas aeruginosa [7], 250 mg/L; in the data set on Klebsiella pneumoniae [8], 250 mg/L. Moreover, the minimum inhibitory concentration (MIC) in the data set with Aspergillus flavus, against Candida albicans [1] and in the data set on Candida albicans [2] was over 250 mg/L in each case.
Take `CN[C@H](CC(C)C)C(=O)N[C@H]1C(=O)N[C@@H](CC(N)=O)C(=O)N[C@H]2C(=O)N[C@H]3C(=O)N[C@H](C(=O)N[C@H](C(=O)O)c4cc(O)cc(O)c4-c4cc3ccc4O)[C@H](O)c3ccc(c(Cl)c3)Oc3cc2cc(c3O[C@@H]2O[C@H](CO)[C@@H](O)[C@H](O)[C@H]2O[C@H]2C[C@](C)(N)[C@H](O)[C@H](C)O2)Oc2ccc(cc2Cl)[C@H]1O` [VANCOMYCIN]: the MIC is 2 to 4 mg/L (≈ 1.38 to 2.76 µM) in the data set on Staphylococcus aureus [4]; 125 mg/L (≈ 86.3 µM) in the data set with Enterococcus faecalis [5]; 64 to 125 mg/L (≈ 44.2 to 86.3 µM) against Escherichia coli [6]; over 250 mg/L against Pseudomonas aeruginosa [7]; over 250 mg/L against Klebsiella pneumoniae [8].
On to `NC[C@H]1O[C@H](O[C@H]2[C@H](O)[C@@H](O[C@H]3O[C@H](CO)[C@@H](O)[C@H](N)[C@H]3O)[C@H](N)C[C@@H]2N)[C@H](O)[C@@H](O)[C@@H]1O` [KANAMYCIN], for which the MIC against Staphylococcus aureus [3] is 2 to 4 mg/L (≈ 4.13 to 8.26 µM); with Staphylococcus aureus [4], 125 to 250 mg/L (≈ 258 to 516 µM); in the data set on Enterococcus faecalis [5], 250 mg/L (≈ 516 µM); in the data set on Escherichia coli [6], 4 mg/L (≈ 8.26 µM); against Pseudomonas aeruginosa [7], 125 mg/L (≈ 258 µM); in the data set with Klebsiella pneumoniae [8], 1 mg/L (≈ 2.06 µM).
On to `O=C1c2ccccc2C(=O)c2c1nnn2CCCCCCn1nnc2c1C(=O)c1ccccc1C2=O`, for which the result with Staphylococcus aureus [12], in the data set on Staphylococcus aureus [13], in the data set on Enterococcus faecalis [14], with Escherichia coli [15], in the data set on Pseudomonas aeruginosa [16] and in the data set on Klebsiella pneumoniae [17] was inactive.
On to `CCCC[n+]1nn(CCCCCCn2n[n+](CCCC)c3c2C(=O)c2ccccc2C3=O)c2c1C(=O)c1ccccc1C2=O.O=S(=O)([O-])C(F)(F)F.O=S(=O)([O-])C(F)(F)F`, for which the MIC was 0.125 mg/L in the data set on Staphylococcus aureus [3]; over 250 mg/L in the data set with Staphylococcus aureus [4]; 16 mg/L against Enterococcus faecalis [5]; over 250 mg/L in the data set on Escherichia coli [6]; 32 mg/L against Pseudomonas aeruginosa [7]; 250 mg/L against Klebsiella pneumoniae [8]. The values for the minimal inhibitory concentration (MIC) against Aspergillus flavus, against Candida albicans [1] and with Candida albicans [2] were over 250 mg/L, 250 mg/L and over 250 mg/L, respectively. Also, the Activity result in the data set on SK-OV-3 [9] is “Non-Toxic”. For the same molecule, the IC50 with SK-OV-3 [10] was determined as 115 mg/L.
For `C[n+]1nn(CCCCCCn2n[n+](C)c3c2C(=O)c2ccccc2C3=O)c2c1C(=O)c1ccccc1C2=O.O=S(=O)([O-])C(F)(F)F.O=S(=O)([O-])C(F)(F)F`, the MIC was 0.125 mg/L with Staphylococcus aureus [3]; over 250 mg/L against Staphylococcus aureus [4]; 16 mg/L against Enterococcus faecalis [5]; over 250 mg/L with Escherichia coli [6]; 250 mg/L against Pseudomonas aeruginosa [7]; 250 mg/L in the data set with Klebsiella pneumoniae [8]. Moreover, the MIC is over 250 mg/L with Aspergillus flavus; over 250 mg/L against Candida albicans [1]; over 250 mg/L against Candida albicans [2]; 125 mg/L against Cryptococcus neoformans; 62.5 mg/L in the data set on Rhodotorula mucilaginosa. Further, the Activity result with SK-OV-3 [9] was “Toxic”. Also, half-maximal inhibition in the data set with SK-OV-3 [10] (IC50) required 46.1 mg/L.
`NCC[C@H](O)C(=O)N[C@@H]1C[C@H](N)[C@@H](O[C@H]2O[C@H](CN)[C@@H](O)[C@H](O)[C@H]2O)[C@H](O)[C@H]1O[C@H]1O[C@H](CO)[C@@H](O)[C@H](N)[C@H]1O` [AMIKACIN]: the MIC against Staphylococcus aureus [3] was 0.5 mg/L (≈ 0.854 µM); against Staphylococcus aureus [4] it was 16 mg/L (≈ 27.3 µM); with Enterococcus faecalis [5], over 250 mg/L; in the data set on Escherichia coli [6] it was 1 mg/L (≈ 1.71 µM); against Pseudomonas aeruginosa [7] it was 1 mg/L (≈ 1.71 µM); with Klebsiella pneumoniae [8] it was 1 mg/L (≈ 1.71 µM).
Turning to `CCCCCCCC[n+]1nn(CCCCCCn2n[n+](CCCCCCCC)c3c2C(=O)c2ccccc2C3=O)c2c1C(=O)c1ccccc1C2=O.O=S(=O)([O-])C(F)(F)F.O=S(=O)([O-])C(F)(F)F`, the MIC in the data set on Staphylococcus aureus [3] is 4 mg/L; in the data set on Staphylococcus aureus [4], 4 to 8 mg/L; against Enterococcus faecalis [5] it was 1 mg/L; with Escherichia coli [6], 2 to 4 mg/L; against Pseudomonas aeruginosa [7], 4 mg/L; in the data set with Klebsiella pneumoniae [8], 16 mg/L. Also, the MIC in the data set with Aspergillus flavus came to 15.6 mg/L; with Candida albicans [1], 3.91 mg/L; against Candida albicans [2] it was 3.91 mg/L; against Cryptococcus neoformans, 3.9 mg/L; with Rhodotorula mucilaginosa it was 2 mg/L. Besides, the Activity result in the data set with SK-OV-3 [9] is recorded as “Non-Toxic”. For the same molecule, the IC50 in the data set with SK-OV-3 [10] came out at 74 mg/L.

The values are drawn from ChEMBL document CHEMBL3992508, “Synthesis and bioactivity investigation of quinone-based dimeric cationic triazolium amphiphiles selective against resistant fungal and bacterial pathogens” (Eur J Med Chem, 2017).
